In patent publication US20030130297A1, “Oral administration of 6-hydroxy-oxymorphone for use as an analgesic” (Endo Pharmaceuticals, Inc., priority 2001, published 2003):

Experiments:
[1] = system: Opiate, Delta 1; assay: Opiate Delta 1 receptor binding assay
[2] = molecular target: Opiate, Delta 2 (Human Recombinant) (Homo sapiens, UniProt P41143); assay: Opiate Delta 2 receptor binding assay
[3] = molecular target: Opiate, Kappa (Human Recombinant (Homo sapiens, UniProt P41145)); assay: Opiate Kappa receptor binding assay
Opiate, Kappa (Human Recombinant, sequence (P41145 whole entry): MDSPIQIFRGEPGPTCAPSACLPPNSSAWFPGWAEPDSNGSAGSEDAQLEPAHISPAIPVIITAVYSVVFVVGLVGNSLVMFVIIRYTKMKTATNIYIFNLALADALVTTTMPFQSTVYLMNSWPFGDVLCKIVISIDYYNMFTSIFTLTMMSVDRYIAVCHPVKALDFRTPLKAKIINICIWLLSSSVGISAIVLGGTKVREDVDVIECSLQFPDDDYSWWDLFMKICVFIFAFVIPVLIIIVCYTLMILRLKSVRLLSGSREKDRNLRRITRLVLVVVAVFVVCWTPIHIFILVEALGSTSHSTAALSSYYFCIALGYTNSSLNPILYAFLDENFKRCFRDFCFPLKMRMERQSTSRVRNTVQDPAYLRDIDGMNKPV

[4] = molecular target: Opiate, Mu (Human Recombinant) (Homo sapiens, UniProt P35372); assay: Opiate Mu receptor binding assay
Opiate, Mu (Human Recombinant), sequence (P35372 whole entry): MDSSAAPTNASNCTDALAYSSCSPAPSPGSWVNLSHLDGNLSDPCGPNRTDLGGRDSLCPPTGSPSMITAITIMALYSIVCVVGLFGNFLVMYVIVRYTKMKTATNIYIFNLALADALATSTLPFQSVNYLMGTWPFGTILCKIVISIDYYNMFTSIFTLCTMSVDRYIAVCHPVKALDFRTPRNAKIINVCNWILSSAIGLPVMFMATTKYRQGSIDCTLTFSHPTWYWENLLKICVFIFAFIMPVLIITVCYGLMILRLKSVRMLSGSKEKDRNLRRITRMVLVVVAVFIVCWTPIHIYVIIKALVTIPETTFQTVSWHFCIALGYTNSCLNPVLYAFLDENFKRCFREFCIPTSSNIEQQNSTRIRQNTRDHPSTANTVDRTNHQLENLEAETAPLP

[5] = Pharmacokinetic studies: blood plasma levels and pain relief over 12 hours after administration of oxymorphone; format: in vivo; details: for Time at which blood plasma levels peak: after administration of oxymorphone
Protocol: In two separate studies, blood plasma levels and indications of pain relief were recorded over a 12 hour period after.
After this time, oxymorphone levels again drop and eventually fall to levels near the earlier plateau.
After the initial peak, however, a more or less steady decline in the 6-hydroxy oxymorphones plasma levels is observed.
The amount administered will be dependent upon normal criteria such as patient weight, intensity of pain, and other factors. Based on the pharmacokinetic studies, blood plasma levels around at least 0.2 ng/mL will provide some analgesia. The upper plasma level limit will be ultimately established by safety concerns. […] Subsequent doses may be required to maintain these blood levels.

Opiate, Delta 2 (Human Recombinant), sequence (P41143 whole entry): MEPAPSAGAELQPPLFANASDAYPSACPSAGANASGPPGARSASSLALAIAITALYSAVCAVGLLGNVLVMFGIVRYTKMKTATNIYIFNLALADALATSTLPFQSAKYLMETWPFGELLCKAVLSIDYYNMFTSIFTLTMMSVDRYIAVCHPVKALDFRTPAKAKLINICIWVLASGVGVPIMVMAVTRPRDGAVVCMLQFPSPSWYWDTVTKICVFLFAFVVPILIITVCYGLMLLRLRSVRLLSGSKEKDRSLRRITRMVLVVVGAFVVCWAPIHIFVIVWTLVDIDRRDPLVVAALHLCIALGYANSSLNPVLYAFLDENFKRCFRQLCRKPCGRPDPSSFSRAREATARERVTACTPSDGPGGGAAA

Compound	Assay report, binding, Opiate Delta 1 ([1]; 10 nm (1.0 E−8)) [%]	Assay report, binding, Opiate Delta 1 ([1]; 10 μm (1.0 E−5)) [%]	Assay report, binding, Opiate Delta 2 ([2]; 10 nm (1.0 E−8)) [%]	Assay report, binding, Opiate Delta 2 ([2]; 10 μm (1.0 E−5)) [%]	Assay report, binding, Opiate Kappa ([3]; 10 nm (1.0 E−8)) [%]	Assay report, binding, Opiate Kappa ([3]; 10 μm (1.0 E−5)) [%]	Assay report, binding, Opiate Mu ([4]; 10 nm (1.0 E−8)) [%]	Assay report, binding, Opiate Mu ([4]; 10 μm (1.0 E−5)) [%]	Time at which blood plasma levels peak [5] [h]	Blood plasma level that provides some analgesia ([5]; based on the pharmacokinetic studies)	Time at which the blood plasma level spikes again ([5]; from administration of oxymorphone) [h]
CN1CC[C@]23c4c5ccc(O)c4O[C@H]2C(O)CC[C@@]3(O)[C@H]1C5 (some centres unmarked) [6-HYDROXY OXYMORPHONE, 6-hydroxy oxymorphone]	−4.12	90.48	7.19	55.45	2.45	62.47	63.16	99.91	≤ 2	at least 0.2 ng/mL	–
CN1CC[C@]23c4c5ccc(O)c4O[C@H]2C(=O)CC[C@@]3(O)[C@H]1C5 [OXYMORPHONE, oxymorphone]	−18.26	89.03	–	–	–	–	–	–	≤ 2	–	4 to 6
